Entries after “also recorded” stand apart in the source; their conditions may differ.
Columns and labels:
[1] = system: Wnt5a binding to FZD1 CRD, FZD2 CRD, and FZD7 CRD; test: ELISA of biotinylated Wnt5a binding to FZD CRD-Fc
Description: (§1) 384-well Maxisorp plates (cat. no. 464718; Thermo Scientific) were incubated with 30 μL of Neutravidin (cat. no. 31000, Thermo Scientific; 2 μg/mL in PBS) overnight at 4° C. Plates were then washed with PBST and blocked with PBS/1% BSA for 1 hour at RT and then washed with PBST prior to further processing. The binding assay was conducted in 96 well plates (cat no. 83007-374; VWR) which were blocked with PBS/1% BSA overnight at 4° C. hFZD4 CRD-Fc or hFZD7 CRD-Fc (63 ng/mL) were incubated with either Bio-Wnt3a (25 ng/mL) or Bio-Wnt5a (50 ng/mL) in the presence of 4-fold serial dilutions of the indicated peptide in PBS overnight at 4° C. All assays included hFZD9 CRD-mIgG2A protein as a negative control. hFZD7 CRD-His was suspended in 150 mM NaCl, 50 mM Tris-HCl at pH 7.5 and when used in assays an equal volume of the same buffer control was used. The binding assay mixtures were transferred to the Neutravidin coated plates and incubated for ˜1 h at RT. The wells were then washed with PBST, incubated with anti-hIgG1-HRP (1:10,000 suspended in PBS supplemented with 1% BSA; cat. no. A18817, Invitrogen), and washed again with PBST. The signal was developed with the addition of TMB reagent (following the manufacturer's recommendation; KPL; 50-76-00) for 15 min prior to the addition of an equal volume of 1 M phosphoric acid for 10 min Absorbance was measured at 450 nm using a Tekan M1000 plate reader. Values were collected and plotted using Prism Graphpad software. All assay conditions using peptides were at 1% DMSO final concentration. […]
(§2) Briefly, the assays were performed using (a) FZD1 CRD-Fc, (b) FZD2 CRD-Fc, (c) FZD4 CRD-Fc, or (d) FZD7 CRD-Fc as the capture reagent and biotinylated-Wnt5a as the detection reagent. […] Streptavidin-HRP was used to detect biotinylated Wnt5a, and HRP activity was measured as a function of chemiluminescence detection at 428 nm. […]

[2] = target: T1, Wnt5a binding to FZD4 CRD (Homo sapiens, UniProt Q9ULV1); test: ELISA of biotinylated Wnt5a binding to FZD CRD-Fc; conditions: peptide 0-10 μM
T1 construct: hFZD4 CRD-Fc (cat no. 5847-FZ); purchased R&D systems 5847-FZ
T1 sequence (Q9ULV1 40-161 limits assumed): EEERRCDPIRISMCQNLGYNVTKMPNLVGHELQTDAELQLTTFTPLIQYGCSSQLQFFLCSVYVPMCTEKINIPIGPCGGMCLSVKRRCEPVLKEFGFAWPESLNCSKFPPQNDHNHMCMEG
Description: as §1, §2

[3] = system: mouse intestinal organoids; test: RT-PCR of stem cell and Wnt transcripts in organoids; type: cell-based; conditions: for ISC markers Lgr5 and Ascl2: FIGS. 19A, 19B
Description: Mouse organoids were established from isolated crypts collected from the entire length of the small intestine and maintained as previously described (Sato et al. (2009) Nature 459, 262-265 (2009). All mouse derived tissue was performed according to the animal use guidelines of Genentech, a Member of the Roche Group, and the Institutional Animal Care and Use Committee, conforming to California State legal and ethical practices. Mouse sex was not selected for. Organoids were passaged at least twice per week and grown using IntestiCult Organoid growth media (cat. no. 06005; StemCell Technologies). Peptides were suspended in DMSO and dissolved in media to 1% DMSO final concentration, then added to organoids to initiate drug treatment. Antibodies were added to 10 μg/ml concentration. Organoids were imaged using a Nikon Eclipse Ti scope with a Nikon Plan Fluor 10×Ph1 DLL objective using an Andor Neo camera (1×1 binning; 200 ms exposure) and acquired using NIS Elements (v 4.50 64-bit; Nikon). APC^min organoids were generated as previously described (Melo, F.d.S.e. et al. A distinct role for Lgr5+ stem cells in primary and metastatic colon cancer. Nature 543, 676-680 (2017)). For organoids treated with CHIR99021 (5 μM; Stemcell Technologies) organoids were split and treated with DMSO or CHIR99021 (5 μM) for 24 hr. prior to the addition of peptide or DMSO for 24 hr.
RNA from organoid samples was isolated using the RNeasy Micro kit (cat. no. 74004; Qiagen) according to the manufacturer's instructions. Mouse small intestine RNA was collected using the RNeasy Mini Kit (cat. no. 74104; Qiagen). qRT-PCR was performed in 10 μL reactions with 50 ng total RNA using One-step Real-time RT-PCR mastermix (cat. no. 4392938; Life Technologies) according to the manufacturer's instructions. Taqman probes from Life Technologies were used: Actb (Mm01205647_g1); Lgr5 (Mm01251801_m1); Axin2 (Mm00443610_m1); Ascl2 (Mm01268891_g1); Olfm4 (Mm01320260_m1); Muc2 (Mm01276696_m1); ACTB(Hs99999903_m1); ACTB(Mm00607939_s1); GAPDH (Mm99999915_g1); and GAPDH(Hs03929097_g1). RT-PCR reactions were run using a 7900HT Fast Real-Time PCR system (ABI) at the following thermal cycling conditions: Holding step of 30 min at 48° C., followed by a holding step of 10 min at 95° C., and 40 cycles of 10 sec at 95° C. and 1 min at 60° C. Values were normalized to actin transcript levels and then normalized to control as described in the figure legend.
Treatment with Fz7-21S had no effect. […] The effects of dFz7-21 on both ISC potential and stem cell transcripts were similar to a control anti-Lrp6 antibody (i.e., a general inhibitor of Wnt signaling).

LPSDDLEFWCHVMY [dFz7-21]
peptide concentration with the most Wnt5a binding ([1]; FIGS. 22A, 22B): 0.05 µM | effect on Wnt5a binding to FZD4 CRD [2]: did not show any effect; also recorded: no such effect | Muc2 ([3]; 24 and 48 h treatment): upregulated | ISC markers Lgr5 and Ascl2 ([3]; 24 and 48 h treatment): significantly down regulated | Axin2 ([3]; FIG. 19C): significantly reduced

LPSDDLEFWSHVMY [Fz7-21S, negative control]
effect on Wnt5a binding to FZD1, FZD2 and FZD7 CRD ([1]; peptide 0-10 μM): showed no effect | effect on Wnt5a binding to FZD4 CRD [2]: showed no effect | ISC markers Lgr5 and Ascl2 ([3]; 24 and 48 h treatment): had no effect
